Data reported in the NIST ThermoML archive (doi:10.1016/j.fluid.2007.04.014).

Experiments:
[1] = Solid-liquid equilibrium temperature; conditions: Crystal, Closed cell (Static) method
[2] = Crystal; Closed cell (Static) method

CCCCCCCCCCCCCCCCC [heptadecane]
[1]
Conditions	Solid-liquid equilibrium temperature [K]
20800 kPa	299.75
40100 kPa	304.05
60100 kPa	308.3
80100 kPa	312.4
99300 kPa	316.5

Conditions	Normal melting temperature [°C]
[2]	22.20
